Assays:
MC4-R [1] = target: T1, MC4-R (Homo sapiens, UniProt P32245); experiment: cAMP functional activity assay in HEK-293 cells, normal system; format: cell-based; set-up: expressed in transfected cells; host or cells: HEK-293; conditions: for intrinsic activity at MC4-R in a normal system: normal receptor density system, NDP-α-MSH = 1.0; for functional status at MC4-R in cAMP assay: normal system, 1 μM concentration where stated
MC4-R [2] = target: T1, MC4-R; experiment: cAMP agonist stimulation, high receptor density system (10 ng/mL doxycycline); conditions: for Efficacy/Intrinsic Activity: 10 ng/mL doxycycline, high receptor density hMC4-R system, NDP-α-MSH maximal cAMP = 1.0
MC1-R [3] = target: T2, MC1-R (Mus musculus, UniProt Q01727); experiment: Competitive inhibition assay using [I^125]-NDP-α-MSH, B-16 mouse melanoma cell membranes; format: binding; conditions: for inhibition at 1 µM: 1 μM test compound, read-out: Inhibition at 1 μM (NDP-α-MSH) In Normal System, MC1-R; for Ki: read-out: Ki (nM) (NDP-α-MSH) In Normal System, MC1-R
T2 construct: B-16 mouse melanoma cells (containing MC1-R); endogenous in cells
Procedure, shortened: (§1)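 Tracer was 0.4 nM for MC3-R and MC5-R, 0.2 nM for MC4-R and 0.1 nM for MC1-R. Bound radioactivity was gamma-counted after filtration; values are triplicate means, with results below 0% reported as 0%.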

MC4-R [4] = target: T1, MC4-R; experiment: cAMP agonist stimulation, low receptor density system (0.1 ng/mL doxycycline); conditions: for Efficacy/Intrinsic Activity: 0.1 ng/mL doxycycline, low receptor density hMC4-R system, NDP-α-MSH maximal cAMP = 1.0
[5] = IP (and IN) food intake, mice; format: in vivo; conditions: mouse, IP, 4 hours
Procedure, shortened: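 Male Sprague-Dawley rats dosed IV (0.5-3, up to 10 mg/kg) or IP (0.5-10, up to 50 mg/kg); male C57BL/6 mice dosed IP. Change in food intake and body weight over 24 h post-dose versus 1-week vehicle baseline, with 48 and 72 h reversal checks.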

[6] = Penile erection induction in male rats; format: in vivo; conditions: rat
Procedure, shortened: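 Male Sprague-Dawley rats (200-250 g), groups of 4-8, dosed IV or ICV at various doses and observed individually for penile erections. Only statistically relevant increases over vehicle-control mean PEs count as induction; IV responses below 1.0 PEs/rat treated as equivocal, some retested ICV.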

MC5-R [7] = target: T3, MC5-R (Homo sapiens, UniProt P33032); experiment: Competitive inhibition assay using [I^125]-NDP-α-MSH, hMC5-R membranes; format: binding; set-up: expressed in transfected cells; conditions: 1 μM test compound; read-out: Inhibition at 1 μM (NDP-α-MSH) In Normal System, MC5-R
Procedure, shortened: as §1

MC3-R [8] = target: T4, MC3-R (Homo sapiens, UniProt P41968); experiment: Competitive inhibition assay using [I^125]-NDP-α-MSH, hMC3-R membranes; format: binding; set-up: expressed in transfected cells; conditions: 1 μM test compound; read-out: Inhibition at 1 μM (NDP-α-MSH) In Normal System, MC3-R
Procedure, shortened: as §1

[9] = ICV food intake and body weight change; format: in vivo; conditions: rat, 1 nmol, 24 hours
Procedure, shortened: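 Rats fitted with intracerebroventricular cannulas and fed ad libitum got a single ICV dose of vehicle or compound (1-3 nmol). Food intake and body-weight change over the 24 h after dosing were compared with a 1-week vehicle baseline. Values at 48 h and 72 h were also recorded to follow return to baseline.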

MC1-R [10] = target: T2, MC1-R; experiment: cAMP functional activity assay in B-16 mouse melanoma cells; format: cell-based; conditions: 1 μM concentration where stated
Method: (§2) General method for EC50 determination in functional activity assay. […] Data analysis and EC50 values were determined using nonlinear regression analysis with Prism Graph-Pad software.
(§3) Functional status. The agonist/antagonist status with respect to MC1-R, MC-3R, MC4-R and MC5-R of certain compounds of the invention was determined. Antagonistic activity was determined by measuring the inhibition of α-MSH-induced or NDP-α-MSH-induced cAMP levels following exposure to graded doses of compounds as in the preceding descriptions.

MC4-R [11] = target: T1, MC4-R; experiment: Competitive inhibition assay using [I^125]-NDP-α-MSH, hMC4-R membranes; format: binding; set-up: host or cells: TREx-293 (HEK-293 stably expressing Tet repressor); conditions: 1 μM test compound; read-out: Inhibition at 1 μM (NDP-α-MSH) In Normal System, MC4-R
Procedure, shortened: as §1

MC3-R [12] = target: T4, MC3-R; experiment: cAMP functional activity assay in HEK-293 cells; format: cell-based; set-up: expressed in transfected cells; host or cells: HEK-293; conditions: 1 μM concentration where stated
Method: as §2, §3

MC5-R [13] = target: T3, MC5-R; experiment: cAMP functional activity assay in HEK-293 cells; format: cell-based; set-up: expressed in transfected cells; host or cells: HEK-293; conditions: 1 μM concentration where stated
Method: as §2, §3

[14] = IV and IP food intake and body weight change, rats; format: in vivo; conditions: rat, IV, 10 mg/kg, 24 hours
Method: IV and IP food intake and body weight change. Change in food intake and body weight was evaluated for selected compounds. Male Sprague-Dawley rats or male C57BL/6 mice were utilized. Animals were individually housed in conventional plexiglass hanging cages and maintained on a controlled 12 hour on/off light cycle. Water and powdered (LabDiet, 5P00 Prolab RMH 3000) or pelleted (Harlan Teklad 2018 18% Protein Rodent Diet) food was provided ad libitum. For 1 week before treatment, 24-hour food intake and body weight change was recorded to assess a baseline for the group during vehicle treatment. The rats were dosed IV with vehicle or selected compounds (0.5-3 mg/kg, and in some cases up to 10 mg/Kg) or dosed intraperitoneally (IP) with vehicle or selected compounds (0.5-10 mg/kg, and in some cases up to 50 mg/kg). Mice were dosed IP. The changes in body weight and food intake for the 24 hour period after dosing were determined. The changes in body weight and food intake for the 48 hour and 72 hour periods after dosing were also measured to determined reversal of changes in body weight and food intake effects back to baseline levels.

T2 sequence (Q01727 whole entry): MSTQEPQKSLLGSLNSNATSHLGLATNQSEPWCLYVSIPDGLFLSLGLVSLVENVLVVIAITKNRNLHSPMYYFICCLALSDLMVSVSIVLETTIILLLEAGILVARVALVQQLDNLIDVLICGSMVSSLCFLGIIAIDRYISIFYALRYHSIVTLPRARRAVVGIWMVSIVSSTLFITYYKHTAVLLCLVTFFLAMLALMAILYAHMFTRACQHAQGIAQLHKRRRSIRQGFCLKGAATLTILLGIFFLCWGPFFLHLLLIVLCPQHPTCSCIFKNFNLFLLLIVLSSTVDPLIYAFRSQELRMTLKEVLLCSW
T4 sequence (P41968 whole entry): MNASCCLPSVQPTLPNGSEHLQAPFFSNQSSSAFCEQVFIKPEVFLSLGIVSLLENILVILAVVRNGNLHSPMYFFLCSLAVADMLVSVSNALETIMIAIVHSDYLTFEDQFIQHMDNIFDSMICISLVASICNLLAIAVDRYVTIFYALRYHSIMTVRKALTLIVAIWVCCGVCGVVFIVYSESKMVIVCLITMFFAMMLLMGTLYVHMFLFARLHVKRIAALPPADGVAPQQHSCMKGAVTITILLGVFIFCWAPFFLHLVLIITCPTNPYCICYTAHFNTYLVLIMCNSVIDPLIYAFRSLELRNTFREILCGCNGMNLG
T3 sequence (P33032 whole entry): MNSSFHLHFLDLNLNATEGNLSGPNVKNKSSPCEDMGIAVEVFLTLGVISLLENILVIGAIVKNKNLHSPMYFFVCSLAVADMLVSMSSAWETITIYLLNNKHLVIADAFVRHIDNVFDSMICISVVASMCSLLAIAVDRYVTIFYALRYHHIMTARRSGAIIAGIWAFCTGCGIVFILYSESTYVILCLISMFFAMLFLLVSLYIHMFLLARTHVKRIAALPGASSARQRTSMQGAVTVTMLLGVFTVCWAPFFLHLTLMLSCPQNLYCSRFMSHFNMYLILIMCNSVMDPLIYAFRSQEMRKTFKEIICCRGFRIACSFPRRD
T1 sequence (P32245 whole entry): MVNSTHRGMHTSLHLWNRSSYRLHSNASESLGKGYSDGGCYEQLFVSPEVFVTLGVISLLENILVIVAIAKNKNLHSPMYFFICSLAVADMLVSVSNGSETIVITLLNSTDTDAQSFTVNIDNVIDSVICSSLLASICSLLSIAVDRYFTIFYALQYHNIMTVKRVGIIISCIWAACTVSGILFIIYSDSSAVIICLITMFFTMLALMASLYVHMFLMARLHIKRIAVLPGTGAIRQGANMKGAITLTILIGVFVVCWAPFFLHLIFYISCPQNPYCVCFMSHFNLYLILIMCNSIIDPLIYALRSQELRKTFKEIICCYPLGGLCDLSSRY

## Cc1cc(Cl)ccc1C[C@@H](N)C(=O)N1C[C@@H](C)N(CCc2c[nH]c3ccccc23)C[C@@H]1CCCNC(=N)N [Example 9, N-(3-{1-(2(R)-Amino-(4-chloro-2-methyl-phenyl)-propionyl)-5(R)-methyl-4-[2-(1H-indol-3-yl)-ethyl]-piperazin-2(S)-yl}-propyl)-guanidine]
MC4-R [1]
  intrinsic activity at MC4-R in a normal system: 1
  functional status at MC4-R in cAMP assay: full agonist
MC4-R [2]
  EC50: 0.022 µM
  Efficacy/Intrinsic Activity: 0.73
MC1-R [3]
  inhibition at 1 µM: 40%
  Ki: 1730 nM
MC4-R [4]
  Efficacy/Intrinsic Activity: None
[5]; 3 mg/kg
  maximal decrease in food intake: 10%
[6]; ICV
  Penile Erection ICV: No
[6]; ICV, 0.01 to 10 nmol
  penile erection response: no penile erection response
[6]; IV
  Penile Erection IV: No
[6]; IV, 0.3 to 30 μg/kg
  penile erection response: no penile erection response
MC5-R [7]
  inhibition at 1 µM: 75%
MC3-R [8]
  inhibition at 1 µM: 74%
[9]
  decrease in body weight: 2%
  decrease in food intake: 16%
MC1-R [10]
  functional status at MC1-R in cAMP assay: no intrinsic activity (intrinsic activity below 0.1 (10%) is classified as inactive or having no intrinsic activity)
MC4-R [11]
  inhibition at 1 µM: 98%
MC3-R [12]
  functional status at MC3-R in cAMP assay: no intrinsic activity (intrinsic activity below 0.1 (10%) is classified as inactive or having no intrinsic activity)
MC5-R [13]
  functional status at MC5-R in cAMP assay: no intrinsic activity (intrinsic activity below 0.1 (10%) is classified as inactive or having no intrinsic activity)

## Cc1cc(Cl)ccc1C[C@@H](N)C(=O)N1C[C@@H](C)N(C(=O)Cc2ccc3ccccc3c2)C[C@@H]1CCCNC(=N)N [Example 10, N-{3-[1-[2(R)-Amino-3-(4-chloro-2-dimethyl-phenyl)-propionyl]-5(R)-methyl(2-naphthalen-2-yl-acetyl)-piperazin-2(S)-yl]-propyl}-guanidine]
[14]
  maximal decrease in food intake: 33%
MC4-R [1]
  intrinsic activity at MC4-R in a normal system: 0.9
  functional status at MC4-R in cAMP assay: agonist (intrinsic activity of 0.7 (70%) or higher is classified as an agonist)
MC4-R [2]
  EC50: 0.026 µM
  Efficacy/Intrinsic Activity: 0.69
MC1-R [3]
  inhibition at 1 µM: 3%
  Ki: 462 nM
MC4-R [4]
  EC50: 0.038 µM
  Efficacy/Intrinsic Activity: 0.23
[5]; 10 mg/kg
  maximal decrease in food intake: 27%
[6]; IV
  Penile Erection IV: Yes*
[6]; IV, 0.3 to 30 μg/kg
  animals responding: not more than 66%
MC5-R [7]
  inhibition at 1 µM: 36%
MC3-R [8]
  inhibition at 1 µM: 34%
MC1-R [10]
  functional status at MC1-R in cAMP assay: partial agonist (intrinsic activity between 0.1 (10%) and 0.7 (70%) is classified as a partial agonist)
MC4-R [11]
  inhibition at 1 µM: 96%
MC3-R [12]
  functional status at MC3-R in cAMP assay: partial agonist (intrinsic activity between 0.1 (10%) and 0.7 (70%) is classified as a partial agonist)
MC5-R [13]
  functional status at MC5-R in cAMP assay: agonist (intrinsic activity of 0.7 (70%) or higher is classified as an agonist)
